# From article PMC9953885 (Biosensors, 2023)
# Structures can show the parent of a compound that is named as a salt.
# Target: T1, human pancreatic lipase (hPL) (Homo sapiens, UniProt P16233)
# T1 construct: gene PNLIP
# T1 sequence (P16233 17-465): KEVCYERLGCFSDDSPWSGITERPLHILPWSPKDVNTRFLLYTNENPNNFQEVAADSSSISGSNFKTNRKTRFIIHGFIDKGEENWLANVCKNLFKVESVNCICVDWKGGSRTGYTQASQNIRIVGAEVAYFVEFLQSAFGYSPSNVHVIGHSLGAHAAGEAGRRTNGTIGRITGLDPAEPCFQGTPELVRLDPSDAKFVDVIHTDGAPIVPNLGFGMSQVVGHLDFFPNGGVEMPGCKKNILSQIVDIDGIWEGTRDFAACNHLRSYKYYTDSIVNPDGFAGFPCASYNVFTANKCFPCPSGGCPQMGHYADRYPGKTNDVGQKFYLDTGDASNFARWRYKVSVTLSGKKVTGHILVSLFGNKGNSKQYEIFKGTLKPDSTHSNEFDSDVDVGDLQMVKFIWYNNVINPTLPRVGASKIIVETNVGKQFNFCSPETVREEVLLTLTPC
# Settings: 10 µM; inhibitor
# Protocol: First, we evaluated the inhibitory effect of 94 natural products derived from herbs and 94 drugs on hPL. In our high-throughput screening system, 1 ug/mL hPL was used, and the final concentration of the 94 natural products derived from herbs and 94 drugs used was 10 μM. Other conditions were the same as in the selectivity experiments. […] RLE was incubated with hPL and various enzymes, such as hCES1A, hCES2A, CA, AchE, BchE, 5-HKE, lysozyme, trypsin, thrombin, α-CT, FAP, PREP, pepsin, α-amylase, plasmin, notum and hSA, in a 100 µL incubation mixture consisting of Tris-HCl (pH = 7.4, 25 mM), NaCl (150 mM), CaCl2 (1 mM) and porcine bile salt (0.1 mg/mL) at a concentration of 1.5 µg/mL. The reaction was initiated by adding RLE to the preincubated enzyme mixture at 37 °C, and metabolite formation was determined by measuring the fluorescence intensity of resorufin at 590 nm. In addition, several amino acids (IIe, His, Trp, Val, Leu, Tyr, Ala, Thr, Pro, Asp, Lys, Met, Cys, Ser, Phe, Gly, Glu and Gln), ions (Ni^2+, Ca^2+, Na^+, K^+, Cu^2+, Zn^2+, Mg^2+, NH4^+, Cu^+, Fe^2+ and CN^-) and GSH were measured. The concentration of these interfering factors was 5 μM. […] In this case, a visual high-throughput assay was established to screen hPL inhibitors, using RLE as a fluorogenic substrate in a 96-well microplate.
row,Compound,% of control remaining [%]
1,C=C1CC[C@@H]2[C@](C)(CO)[C@H](O)CC[C@@]2(C)[C@@H]1C/C=C1/C(=O)OC[C@H]1O [Andrographolide],70.38
2,C[C@@H](Oc1cc(-c2cnn(C3CCNCC3)c2)cnc1N)c1c(Cl)ccc(F)c1Cl [Crizotinib],85.14
3,Nc1ccccc1NC(=O)c1ccc(CNC(=O)OCc2cccnc2)cc1 [Entinostat],102.02
4,O=C(O)/C=C/c1ccccc1 [trans-Cinnamic acid],72.50
5,COc1cc([C@@H]2c3cc4c(cc3[C@@H](O[C@@H]3O[C@@H]5CO[C@@H](C)O[C@H]5[C@H](O)[C@H]3O)[C@H]3COC(=O)[C@H]23)OCO4)cc(OC)c1O [Etoposide],65.05
6,COc1ccc(-c2coc3cc(O[C@@H]4O[C@H](CO)[C@@H](O)[C@H](O)[C@H]4O)ccc3c2=O)cc1O [Calycosin 7-O-glucoside],84.02
7,COc1cc2c(cc1OC)-c1cc3ccc(OC)c(OC)c3c[n+]1CC2 [Palmatine chloride],87.01
8,C[C@H]1CC[C@@]2(OC1)O[C@H]1C[C@H]3[C@@H]4CC[C@@H]5C[C@@H](O[C@@H]6O[C@H](CO)[C@H](O)[C@H](O)[C@H]6O[C@@H]6O[C@H](CO)[C@@H](O)[C@H](O)[C@H]6O)CC[C@]5(C)[C@H]4CC[C@]3(C)[C@H]1[C@@H]2C [Timosaponin A-III],95.12
9,COC(=O)/C=C/c1ccc(O)c(O)c1 [Methyl caffeate],72.74
10,CC(NC(C)(C)C)C(=O)c1cccc(Cl)c1 (stereo not shown) [bupropion hydrochloride],120.79
11,NCC[C@H](O)C(=O)N[C@@H]1C[C@H](N)[C@@H](O[C@H]2O[C@H](CN)[C@@H](O)[C@H](O)[C@H]2O)[C@H](O)[C@H]1O[C@H]1O[C@H](CO)[C@@H](O)[C@H](N)[C@H]1O [Amikacin],73.77
12,C=C1C(=O)O[C@@H]2C[C@@]3(C)CCCC(=C)[C@@H]3C[C@H]12 [Isoalantolactone],70.02
13,O=C1c2c(O)cc(O)cc2O[C@H](c2ccc(O)c(O)c2)[C@H]1O [TGaxifolin],97.17
14,O=C1C=CC[C@@H]2[C@H]3CCC[N+]4([O-])CCC[C@@H](CN12)[C@@H]34 (stereo partly shown) [Oxysophocarpine],98.58
15,COC(=O)[C@@]1(C)CC[C@]2(C(=O)O)CC[C@]3(C)C(=CC[C@@H]4[C@@]5(C)C[C@H](O)[C@H](O)[C@@](C)(CO)[C@@H]5CC[C@]43C)[C@@H]2C1 [phytolaccagenin],85.42
16,COc1cc(O)cc2c1C(=O)C[C@@H](c1ccccc1)O2 [Alpinetin],107.78
17,COc1cc(O)c2c(c1C(=O)/C=C/c1ccc(O)cc1)OC(C)(C)C(O)C2 (stereo not shown) [Xanthohumol L],100.78
18,COC(=O)[C@H]1[C@H]2C[C@@H]3c4[nH]c5cc(OC)ccc5c4CCN3C[C@H]2C[C@@H](OC(=O)c2cc(OC)c(OC)c(OC)c2)[C@@H]1OC [Reserpine],94.24
19,CC(=O)Nc1ccc(OC(=O)c2ccccc2OC(C)=O)cc1 [Benorilate],76.99
20,COc1cc(-c2coc3cc4c(c(OC)c3c2=O)OCO4)cc(OC)c1OC [Irisflorentin],66.38
21,CCC(CC)COC(=O)[C@H](C)N[P@](=O)(OC[C@H]1O[C@@](C#N)(c2ccc3c(N)ncnn23)[C@H](O)[C@@H]1O)Oc1ccccc1 [Remdesivir],98.67
22,COC(=O)C1=C(C)NC(C)=C(C(=O)OCC(C)C)C1c1ccccc1[N+](=O)[O-] (stereo not shown) [Nisoldipine],75.08
23,COc1ccc(-c2cc(=O)c3c(OC)c(OC)c(OC)c(OC)c3o2)cc1OC [Nobiletin],80.44

row,Compound,% of control remaining [%]
1,NS(=O)(=O)c1cc(C(=O)O)c(NCc2ccco2)cc1Cl [Furosemide],100.00
2,C=C1C(=O)O[C@@H]2C[C@@]3(C)CCC[C@H](C)C3=C[C@H]12 [Alantolactone],61.11
3,CC(=O)CC(c1ccccc1)c1c(O)c2ccccc2oc1=O (stereo not shown) [Warfarin sodium],84.05
4,COc1cc(O)c2c(=O)cc(-c3ccc(OC)c(-c4c(O)cc(O)c5c(=O)cc(-c6ccc(O)cc6)oc45)c3)oc2c1 [Ginkgetin],39.42
5,COc1c(O)cc(O)c2c(=O)cc(-c3ccccc3)oc12 [Wogonin],106.17
6,CC[C@H]1CN2CC[C@@]3(C(=O)Nc4ccccc43)[C@@H]2C[C@@H]1/C(=C\OC)C(=O)OC [Isorhynchophylline],87.99
7,C[C@]12CCC(=O)C=C1CC[C@@H]1[C@@H]2[C@@H](O)C[C@@]2(C)[C@H]1CC[C@]2(O)C(=O)CO [Hydrocortisone],56.27
8,O=c1cc(-c2ccc(O)c(O)c2)oc2c([C@@H]3O[C@H](CO)[C@@H](O)[C@H](O)[C@H]3O)c(O)cc(O)c12 [Orientin],76.06
9,C[C@]12C=CC(=O)C=C1CC[C@@H]1[C@@H]2[C@@H](O)C[C@@]2(C)[C@H]1CC[C@]2(O)C(=O)CO [Prednisolone],82.34
10,CC1(C)OC(=O)C=C[C@]2(C)[C@H]3CC[C@@]4(C)[C@H](c5ccoc5)OC(=O)[C@H]5O[C@]54[C@]3(C)C(=O)C[C@@H]12 [Obacunon],79.60
11,COC1=C[C@@H]2[C@@H]3Cc4ccc(OC)c(O)c4[C@]2(CCN3C)CC1=O [Sinomenine],101.42
12,CCC(=O)O[C@H]1CC[C@H]2[C@@H]3CCC4=CC(=O)CC[C@]4(C)[C@H]3CC[C@]12C [Testosterone propionate],65.37
13,Cc1ncc([N+](=O)[O-])n1CCO [Metronidazole],78.49
14,CC1(C)[C@H](C(=O)O)N2C(=O)C[C@H]2S1(=O)=O [Sulbactam sodium],88.89
15,CCOC(=O)C1=C(C)NC(C)=C(C(=O)OC)C1c1cccc(Cl)c1Cl (stereo not shown) [Felodipine],93.02
16,COc1ccc(-c2cc(=O)c3c(O)c(OC)c(O)c(OC)c3o2)cc1 [Lysionotin],84.30
17,COc1ccc(-c2coc3cc(O)ccc3c2=O)cc1 [Formononetin],104.25
18,C[C@@H]1O[C@@H](O[C@H]2[C@H](OC(=O)[C@]34CCC(C)(C)C[C@H]3C3=CC[C@@H]5[C@@]6(C)C[C@H](O)[C@H](O[C@@H]7O[C@H](CO)[C@@H](O)[C@H](O)[C@H]7O)C(CO)(CO)[C@@H]6CC[C@@]5(C)[C@]3(C)C[C@H]4O)OC[C@H](O)[C@@H]2O)[C@H](O)[C@H](O)[C@H]1O[C@@H]1OC[C@@H](O)[C@H](O[C@@H]2OC[C@](O)(CO)[C@H]2O)[C@H]1O [Platycodin D],89.14
19,O=C1c2c(O)cc(O)cc2O[C@H](c2ccc(O)cc2)[C@H]1O [Dihydrokaempferol],109.31
20,CC1(C)O[C@H]2CC(=O)OC[C@]23[C@H]2CC[C@@]4(C)[C@H](c5ccoc5)OC(=O)[C@H]5O[C@]54[C@]2(C)C(=O)C[C@@H]13 [Limonin],85.30
21,O=C(NC[C@H]1CN(c2ccc(N3CCOCC3=O)cc2)C(=O)O1)c1ccc(Cl)s1 [Rivaroxaban],118.66
22,COc1c2ccoc2cc2oc(=O)ccc12 [Bergapten],54.11
23,CCOC(=O)N1CCC(=C2c3ccc(Cl)cc3CCc3cccnc32)CC1 [Loratadine],96.14
